Test results from publication PMC6143625, “A high throughput screen for next-generation leads targeting malaria parasite transmission” (Nature Communications, 2018).

Assays:
[1] = test system: HepG2 human cells; design: method as in http://dx.doi.org/10.6019/CHEMBL3507680; details: ref http://dx.doi.org/10.6019/CHEMBL3507680; cited from earlier work
[2] = test system: P. falciparum 3D7 asexual blood stages; test: Whole-cell time extended asexual growth assay (pLDH); type: cell-based; details: Plasmodium falciparum, 72 h; for IC50: dose response retest, read-out: IC50 (µM) Asex stages; for inhibition at 2 µM: primary screen, read-out: %Inh Asex stages @2uM
Experimental: Asexual activity was assayed via Plasmodium lactate dehydrogenase activity (pLDH), a surrogate of asexual parasite growth. […] 2 µM artesunate and DMSO were used as the positive and negative controls, respectively. […] After plate mixing, NBT reduction was measured by absorbance at 650 nm using Envision (Perkin Elmer).

Row | SMILES | %Inh HepG2 @10uM [1] | IC50 [2] | inhibition at 2 µM [2]
1 | CN(CCCOc1ccccc1)C(=O)c1csc(-c2nnc[nH]2)n1 [DDD01061692] | -5.84% | 2.03 µM | 34.8%
2 | Clc1ccc(C2(CNC3=NCCN3)CC2)cc1.I [DDD01067441] | 10.02% | 1.95 µM | 40.6%
3 | COc1cc(C)sc1C(=O)NCCNc1ccccc1 [DDD01067535] | 11.25% | 2.4 µM | 41.9%
4 | COc1cc2nc(NCc3ccc(C)nc3)nc(N)c2cc1OC [DDD01069328] | -5.25% | 2.24 µM | 58%
5 | Clc1cccc(CNC2CCN(CCc3ccncc3)CC2)c1 [DDD01069722] | 0.53% | 2.28 µM | 57.5%
6 | COc1ccccc1CN(C)C(=O)CN1CC(n2nc(C)cc2C)C1 [DDD01071519] | -2.12% | 2.5 µM | 44.4%
7 | COc1ccc(C(=O)NCCCOC(C)c2ccccc2)c(OC)c1 (stereo not drawn) [DDD01071935] | -11.10% | 2.68 µM | 41.6%
8 | CCC(=O)NCC(c1ccc(SC)cc1)N1CCc2sccc2C1 (stereo not drawn) [DDD01071943] | -8.32% | 2.03 µM | 64.5%
9 | CN(C)c1ccnc(N2CCC(NCCOc3ccccc3)CC2)n1 [DDD01072965] | 19.60% | 7.83 µM | 30.8%
10 | CCOCC1CCN(C(=O)Nc2ccc3c(c2)CCCN3C)C1 (stereo not drawn) [DDD01073381] | -10.40% | 1.9 µM | 31.9%
11 | COc1cccc(CNc2cc(C)nc(-c3ccncc3)n2)c1OC [DDD01073393] | -6.44% | 4.85 µM | 40.5%
12 | O=C(c1ccccc1)C1CCN(Cc2cc3c(cc2O)CCC3)CC1 [DDD01073482] | 33.89% | 1.75 µM | 48.9%
13 | CC1CCN(c2ccnc3ccc(Br)cc23)CC1 [DDD01075547] | 2.00% | 9.1 µM | 35.9%
14 | Cc1cnc(NCc2ccc(S(=O)(=O)N(C)C(C)C)cc2)nc1C [DDD01077176] | -11.10% | 3.18 µM | 42.2%
15 | N#Cc1c(Cl)nsc1NCCCN1C(=O)COc2ccccc21 [DDD01077687] | 8.75% | 3.47 µM | 39.1%
16 | COc1ccc(Oc2cc(CN)ccn2)cc1 [DDD01078308] | 2.32% | 6.7 µM | 30.1%
17 | NC(=O)CN1CCC(Nc2ccnc3ccc(Cl)cc23)CC1 [DDD01078433] | -1.05% | 1.24 µM | 82%
18 | Cc1cc(=O)n2nc(Oc3ccc(Cl)c(C)c3)sc2n1 [DDD01078480] | -6.83% | 3.34 µM | 42%
19 | COc1c(C)cnc(CN(C)C2CCCCC2)c1C [DDD01078822] | 8.25% | 5.74 µM | 35.1%
20 | CCOCc1ccc(CNC2=NCCCN2)cc1.I [DDD01079448] | -2.49% | 1.58 µM | 40.1%
21 | Cc1ccc(CNC2CCN(CCc3ccncc3)CC2)cc1C [DDD01080013] | 1.32% | 1.81 µM | 77%
22 | COc1cccc(CN(C)C(=O)CN2CC(n3nc(C)cc3C)C2)c1 [DDD01080719] | -1.82% | 2.29 µM | 49.9%
23 | CCS(=O)(=O)N1CCC2(CC1)CN(CC1CCOC1)c1ccccc12.O=C(O)C(F)(F)F (stereo not drawn) [DDD01082339] | 25.95% | 7.55 µM | 46%
24 | O=C(O)C(F)(F)F.c1ccc(CN2CCC3(CC2)CC(Nc2nccs2)CO3)nc1 (stereo not drawn) [DDD01083119] | -8.19% | 7.18 µM | 37.5%

Row | SMILES | %Inh HepG2 @10uM [1] | IC50 [2] | inhibition at 2 µM [2]
25 | CC(C)N(C)Cc1cnc2n1CCN(C(=O)NC1CCCC1)C2.O=C(O)C(F)(F)F [DDD01085014] | -9.47% | 4.32 µM | 42.5%
26 | O=C(NCCCN1CCOCC1)c1ccn(-c2ccc3ccccn23)n1.O=C(O)C(F)(F)F [DDD01085308] | 23.54% | 2.53 µM | 50.4%
27 | c1cc(-c2n[nH]cc2-c2ccnc(N3CCCC3)n2)ccn1 [DDD01235828] | -2.36% | 0.201 µM | 46.4%
28 | COc1ccc2[nH]cc(-c3ccnc(NC4CCCC4)n3)c2c1 [DDD01235847] | -0.78% | 3.02 µM | 33.7%
29 | CCCn1cc(-c2ccnc(NC3CCc4ccccc4C3)n2)c(C)n1 (stereo not drawn) [DDD01243522] | 19.33% | 1.16 µM | 31.2%
30 | COc1cccc(CN2CC(=O)N(c3ccccc3C)CC2C)c1OC (stereo not drawn) [DDD01244654] | -6.78% | 3.87 µM | 51.8%
31 | CNc1nc(C)cc(NCc2cc(C)cc3c(C)c(C)[nH]c23)n1 [DDD01244907] | 98.78% | 1.3 µM | 91.8%
32 | CC1CCCCN1C(=O)c1coc(COc2cccc3cnccc23)n1 (stereo not drawn) [DDD01245028] | -6.78% | 1.56 µM | 66.8%
33 | NCC1Cc2cc(-c3nccc(N4CCC(O)CC4)n3)cc(Cl)c2O1 (stereo not drawn) [DDD01245918] | 5.41% | 4.85 µM | 72.6%
34 | O=C(O)C1CC2(CCN(c3nccc4ccccc34)CC2)CN1 (stereo not drawn) [DDD01246093] | 9.49% | 3.51 µM | 35.8%
35 | CCn1cc(CN2CCN(Cc3cc(C)cc(C)c3)C(=O)C2)cc1C#N [DDD01246382] | 15.63% | 3.31 µM | 37.3%
36 | CCCn1ncc(-c2ccnc(NC3CC(C)(C)NC(C)(C)C3)n2)c1C [DDD01246448] | 80.08% | 4.53 µM | 41.5%
37 | CC1(c2ccccc2)CCCN(Cc2cncn2C2CCCC2)C1 (stereo not drawn) [DDD01246491] | -13.60% | 2.95 µM | 39.7%
38 | COc1ccnc(CN2CCCC(CCc3ccc(F)cc3)C2)c1OC (stereo not drawn) [DDD01246654] | 2.04% | 2.25 µM | 51%
39 | Cc1ccc2[nH]c(-c3cn(C4CCNCC4)nn3)nc2c1C [DDD01246711] | -3.44% | 2.13 µM | 63.9%
40 | CCN1CCN(C[C@@H]2CN(c3ncc(Cl)cc3F)C[C@@H]2CO)CC1 [DDD01246828] | -10.90% | 1.4 µM | 82.5%
41 | N#Cc1cccc(N2CCCC(CO)(CCOc3ccccc3)C2)n1 (stereo not drawn) [DDD01247086] | 8.55% | 8.09 µM | 32%
42 | CC(C)CN1CCCC1c1ccc(C(=O)Nc2cccnc2)s1 (stereo not drawn) [DDD01247321] | 0.07% | 3.35 µM | 34.5%
43 | CCn1cc(CN2CCN(Cc3cccc(OC)c3)C(=O)C2)cc1C#N [DDD01247460] | -1.17% | 1.46 µM | 76.2%
44 | COc1ccccc1OCCCc1cccc(C#N)n1 [DDD01247630] | -1.85% | 6.32 µM | 36%
45 | COc1cccc(CN(C)Cc2[nH]c3ccccc3c2C)c1O [DDD01247848] | 1.38% | 1.91 µM | 91.2%
46 | CNc1cc(C)nc(NCc2cc(C)cc3c(C)c(C)[nH]c23)n1 [DDD01248198] | 67.15% | 1.79 µM | 69.2%
47 | CC(C)c1cc(CN(C)C(=O)C(C)N2CCc3ccccc3C2)no1 (stereo not drawn) [DDD01248554] | 34.35% | 9.68 µM | 36%
